Reference: paper PMC8748766, “The catalytic activity of TCPTP is auto-regulated by its intrinsically disordered tail and activated by Integrin alpha-1” (Nature Communications, 2022)

Biological target: T1, TCPTP (Homo sapiens, UniProt P17706)
T1 construct: fragments of TCPTP (residues: 1–387); His6 (N, cleaved yes); made in house; host or cells: E. coli BL21 (DE3) RIL
T1 sequence (P17706 1-387 isoform P17706-2): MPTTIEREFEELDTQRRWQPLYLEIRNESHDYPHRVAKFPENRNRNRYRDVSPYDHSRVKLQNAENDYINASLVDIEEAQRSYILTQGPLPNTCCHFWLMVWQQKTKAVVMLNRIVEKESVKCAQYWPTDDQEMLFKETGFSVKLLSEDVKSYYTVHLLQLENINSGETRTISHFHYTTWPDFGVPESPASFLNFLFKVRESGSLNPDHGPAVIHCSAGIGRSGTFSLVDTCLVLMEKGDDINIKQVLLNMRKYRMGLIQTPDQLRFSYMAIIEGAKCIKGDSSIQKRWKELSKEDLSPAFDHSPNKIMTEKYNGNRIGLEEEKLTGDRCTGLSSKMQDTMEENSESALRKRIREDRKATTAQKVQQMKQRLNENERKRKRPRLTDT
Assay: EC50 assay: TCPTP activation by ITGA1 peptides (pEGFR peptide-1 dephosphorylation)
Format: biochemical
Conditions: 1 nM TCPTP, 50 μM pEGFR peptide-1, pH 7.4, 30 °C 30 min, n = 3
Source text: Polymerase chain reaction (PCR) fragments of TCPTP (residues: 1–387) TCPTPCAT (catalytic domain, residues: 1–288, 1–302 or 1–314), TCPTPTail (C-terminal tail, residues: 289–387 or 303–387) were amplified from full-length human TCPTP (TC45 isoform). TCPTP, TCPTPCAT (residues: 1–288, 1–314), and TCPTPTail (residues: 289–387) fragments were cloned into pMCSG7 including a N-terminal His6-tag using ligation-independent cloning. For all NMR experiments, the PCR fragments of TCPTP, TCPTPCAT (residues: 1–302) and TCPTPTail (residue: 303–387) were sub-cloned into pRP1B as previously described.
To determine the EC50, synthesized ITGA1 peptides (ITGA1_FCT, ITGA1_TCT and ITGA1_TR) were mixed with TCPTP, and phosphatase activity was measured using the phospho-EGFR peptides (pEGFR peptide-1) as substrate. Lyophilized powder of all peptides was dissolved in 25 mM Hepes pH 7.4, 50 mM NaCl. For the assay, the TCPTP concentration was fixed at 1 nM and substrate phospho-peptide at 50 μM. […] The absorbance of the reaction mixture was measured at 650 nm, which was converted to the amount of phosphate produced in reaction based on the standard curve generated from the known phosphate concentration. Data obtained from the reaction was fitted using nonlinear regression mode and EC50 values were calculated based on the equation function “Log(agonist) vs. response-variable slope” using Graph Pad Prism 9.0.

With “RPLKKKMEKRPLKKKMEK [ITGA1_TR, ITGA1 tandem repeat (2x ITGA1_TCT): …]” the “activation in EC50 assays (rank)” value was “strongest activation”.
